How the values were obtained:
[1] = test system: fasted Balb/c mice, quadriceps; test: Fasting-induced muscle atrophy; assay type: in vivo, mouse; conditions: 10 mg/kg oral
Description: (§1) Wild type eight-weeks-old male Balb/c mice obtained from the vivarium Fundación Ciencia & Vida Chile (Santiago, Chile) were used. Mice were housed in independent plastic cages in a room maintained at 25° C. with a 12-h:12-h light:dark cycle.
Twenty-four hours before and during the 2 days of fasted procedures, animals were weighed and receive oral administration via feeding tubes (15 gauge) of vehicle (50% Polyethylene glycol 400 (Sigma-Aldrich P3265) in distilled water or 10 mg/kg of test compound formulated in vehicle solution.
After 2 days of fasting the animals were weighed and sacrificed. Quadriceps were removed from both hindlimbs and weighed. Mice with feed and water ad libitum were used as control. […]
Upon collection, muscles were immediately frozen in liquid nitrogen and then stored at −80° C. […] Protein concentration in supernatants was determined using BCA Protein Assay Kit (Pierce). […]
Puromycin (12D10) (Merck Millipore) ATF4 (Abcam), Atrogin-1 (ECM Biosciences), MuRF-1 (Santa Cruz Biotechnology) and β-actin (Sigma-Aldrich) antibodies were used as primary antibodies. […] Quantification of protein bands was done by densitometry using ImageJ software. […]

ATF4 = ATF4 expression inhibition assay (immunoblot, Tg-stressed HEK293T cells); assay type: cell-based, human; conditions: 100 nM Tg, 3 hours, 0.1 nM to 10 μM compound (FIG. 6)
Description: HEK293T cells were maintained at 37° C. and 5% CO2 in Dulbecco's Modified Eagle's Media (DMEM) supplemented with 10% fetal bovine serum (FBS), 2 mM L-glutamine, 100 U/ml penicillin, and 100 μg/ml streptomycin. After reaching 80% of confluence, cells were detached and seeded on 6 well plates in complete media, allowed to recover overnight and treated for 3 hours with 100 nM thapsigargin (Tg) in the presence of various concentrations ranging from 0.1 nM to 10 μM. Cells without treatment (Veh) or cells treated with Tg alone were used as controls.
After 3 hours of treatment with Tg and the test compound, cells were lysed with SDS-PAGE lysis buffer. Lysates were transferred to 1.5 ml tubes and sonicated for 3 min, and total protein amounts were quantified using BCA Protein Assay Kit (Pierce). Equal amount of proteins was loaded on SDS-PAGE gels. Proteins were transferred onto […] PVDF membranes (BioRad) and probed with primary antibodies diluted in Tris-buffered saline supplemented with 0.1% Tween 20 and 3% bovine serum albumin.
ATF4 (11815) antibody (Cell Signaling Technologies) and β-actin (Sigma-Aldrich) antibodies were used as primary antibodies. […]

[2] = test system: Balb/c mice with denervated hind limb, tibialis anterior; test: Denervation-induced muscle atrophy; assay type: in vivo, mouse
Description: as §1
After a deeply anesthetized (isoflurane inhaled in medical oxygen), mice were denervated by surgical removal of ˜2 mm of sciatic nerve from one hindlimb. The incisions were closed using sutures. All procedures were performed under sterile conditions and the mice were daily monitored.
After seven days of denervation, animals receive oral administration every day via feeding tubes (15 gauge) of vehicle (50% Polyethylene glycol 400 (Sigma-Aldrich P3265) in distilled water) or 10 mg/kg of compound 58 formulated in vehicle solution.
After 14 days of denervation, animals were sacrificed and tibialis anterior were removed from both hindlimbs. Muscles derived from non-denervated hind limb were used as control.
Upon collection, muscles were immediately frozen in liquid nitrogen and stored at −80° C. The frozen muscles were then homogenized with a T 10 basic ULTRA-TURRAX (IKa) in ice-cold buffer lysis (Cell Signaling 9803) and protease and phosphatase inhibitors (Roche). Lysates were sonicated for 3 min and centrifuged at 13,000 rpm for 20 minutes at 4° C. Protein concentration in supernatants was determined using BCA Protein Assay Kit (Pierce). Equal amount of protein was loaded on SDS-PAGE gels. […]
ATF4 (Abcam), Atrogin-1 (ECM Biosciences), MuRF-1 (Santa Cruz Biotechnology) and R-actin (Sigma-Aldrich) antibodies were used as primary antibodies. […] Quantification of protein bands was done by densitometry using ImageJ software.
Expression of ATF4 and the muscle atrophy markers, Atrogin-1 and MuRF-1, of tibialis anterior derived from control and denervated hind limbs of mice treated with vehicle or compound 58 are shown in FIG. 11A. […] The levels were normalized to pi-actin expression and percentage was calculated as the percent relative to the expression of non-denervated hind limbs from control mice (Vehicle) which corresponds to 100%. […]

## O=C(NN1CCN(C[C@@H](O)COc2ccc(Cl)c(F)c2)CC1)c1ccc2cc(Cl)ccc2n1 [Compound 58, (R)-6-chloro-N-(4-(3-(4-chloro-3-fluorophenoxy)-2-hydroxypropyl)piperazin-1-yl)quinoline-2-carboxamide]
[1]; vs vehicle-treated fasted mice (FIG. 8F)
  ATF4 expression in quadriceps: reduction
[1]; vs vehicle-treated fasted mice (FIG. 8G)
  Atrogin-1 expression in quadriceps: reduction
ATF4
  ATF4 expression under Tg stress (immunoblot): inhibits the expression of ATF4 under Tg treatment in a dose dependent manner
[2]; 10 mg/kg oral every day from day 7 to 14, vs vehicle (FIG. 11B)
  ATF4 expression in tibialis anterior: reduction
[2]; 10 mg/kg oral every day from day 7 to 14, vs vehicle (FIG. 11C)
  Atrogin-1 expression in tibialis anterior: reduction
[2]; 10 mg/kg oral every day from day 7 to 14, vs vehicle (FIG. 11D)
  MuRF-1 expression in tibialis anterior: reduction

From patent US11166942B2 (PRAXIS BIOTECH LLC, priority 2018, dated 2021)
